For one experiment, the target named is human CB2 receptors (Homo sapiens (Human), UniProt P34972). In words: functional cAMP assay, CHO cells expressing human CB2 receptors. The format is cell-based. The method, boiled down: (§1)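 Cells are seeded 17-24 h ahead, then preincubated in Krebs Ringer bicarbonate buffer with 1 mM IBMX at 30 °C. Compounds act for 30 min at 30 °C, after which lysis and cAMP detection reagents are added for 2 h at room temperature. Time-resolved FRET gives cAMP content, and EC50 values are fitted from it.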
Chain of human CB2 receptors (P34972 whole entry): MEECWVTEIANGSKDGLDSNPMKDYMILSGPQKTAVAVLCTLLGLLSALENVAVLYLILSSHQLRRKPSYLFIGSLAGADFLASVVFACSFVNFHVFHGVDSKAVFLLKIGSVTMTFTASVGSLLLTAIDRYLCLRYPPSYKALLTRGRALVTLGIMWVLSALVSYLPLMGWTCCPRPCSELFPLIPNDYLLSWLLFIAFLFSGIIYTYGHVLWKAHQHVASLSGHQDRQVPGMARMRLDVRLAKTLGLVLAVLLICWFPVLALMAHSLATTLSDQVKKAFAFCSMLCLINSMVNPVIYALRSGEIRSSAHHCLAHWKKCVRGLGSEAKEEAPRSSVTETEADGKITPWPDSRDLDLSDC
On the technique in general: cAMP levels reflect the balance of adenylyl cyclase and phosphodiesterase activity.

For a further experiment, the target named is human CB1 receptors (Homo sapiens (Human), UniProt P21554). In words: functional cAMP assay, CHO cells expressing human CB1 receptors. Format: cell-based. The method, boiled down: as §1
Chain of human CB1 receptors (P21554 whole entry): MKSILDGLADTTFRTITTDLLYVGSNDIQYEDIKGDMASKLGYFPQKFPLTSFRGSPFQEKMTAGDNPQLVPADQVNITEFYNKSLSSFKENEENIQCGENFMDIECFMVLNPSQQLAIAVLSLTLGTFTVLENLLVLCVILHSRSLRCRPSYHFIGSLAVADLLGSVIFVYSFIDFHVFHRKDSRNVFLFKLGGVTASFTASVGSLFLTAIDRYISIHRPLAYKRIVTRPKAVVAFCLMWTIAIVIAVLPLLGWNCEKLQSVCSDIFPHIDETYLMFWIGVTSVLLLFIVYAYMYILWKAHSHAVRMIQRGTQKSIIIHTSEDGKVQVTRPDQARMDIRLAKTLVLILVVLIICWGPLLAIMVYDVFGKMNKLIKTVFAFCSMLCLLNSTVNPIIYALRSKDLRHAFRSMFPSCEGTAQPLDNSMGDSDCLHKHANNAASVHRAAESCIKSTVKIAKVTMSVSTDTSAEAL

Each structure is given as a SMILES string. pEC50: −log10 of the molar value. Some results are limits rather than exact numbers.

For the compound `O=C(c1ccc(C2CC2)c(OCC2CC2)n1)N1CCC(CO)(C(F)(F)F)C1` (stereo not shown) [Example 142, [5-Cyclopropyl-6-(cyclopropylmethoxy)pyridin-2-yl]-[3-(hydroxymethyl)-3-(trifluoromethyl)pyrrolidin-1-yl]methanone], the pEC50 was 7.58 at human CB2 receptors and < 5.00 at human CB1 receptors.
In the same order, the values of `O=C(c1ccc(C2CC2)c(OCC2CC2)n1)N1CCC(O)(C(F)(F)F)C1` (stereo not shown) [Example 143, [5-Cyclopropyl-6-(cyclopropylmethoxy)pyridin-2-yl]-[3-hydroxy-3-(trifluoromethyl)pyrrolidin-1-yl]methanone] are 7.06 and < 5.00.
On the same counts, the results for `O=C(c1ccc(C2CC2)c(OCC2CC2)n1)N1CC(O)(C(F)(F)F)C1` [Example 144, [5-Cyclopropyl-6-(cyclopropylmethoxy)pyridin-2-yl]-[3-hydroxy-3-(trifluoromethyl)azetidin-1-yl]methanone] are 7.14 and < 5.00.
In the same order, the values of `NC(=O)[C@@H]1CC2(CC2)CN1C(=O)c1ccc(N2CC(F)(F)C2)c(OCC2CC2)n1` [Example 145, (6S)-5-[6-(Cyclopropylmethoxy)-5-(3,3-difluoroazetidin-1-yl)pyridine-2-carbonyl]-5-azaspiro[2.4]heptane-6-carboxamide] are 6.45 and < 5.00.
In the case of `O=C(c1ccc(N2CC(F)(F)C2)c(OCC2CC2)n1)N1C[C@H]2COC[C@H]2C1` [Example 146, [(3aR,6aS)-1,3,3a,4,6,6a-Hexahydrofuro[3,4-c]pyrrol-5-yl]-[6-(cyclopropylmethoxy)-5-(3,3-difluoroazetidin-1-yl)pyridin-2-yl]methanone], the negative-log EC50 (pEC50) was 6.78 on human CB2 receptors and < 5.00 at human CB1 receptors.
As for `NC(=O)[C@@H]1CC(F)(F)CN1C(=O)c1ccc(N2CC(F)(F)C2)c(OCCF)n1` [Example 147, (2S)-1-[5-(3,3-Difluoroazetidin-1-yl)-6-(2-fluoroethoxyl)pyridine-2-carbonyl]-4,4-difluoro-pyrrolidine-2-carboxamide], the pEC50 on human CB2 receptors was 5.93; at human CB1 receptors it was < 5.00.
For the compound `O=C(c1ccc(N2CC(F)(F)C2)c(OCC2CC2)n1)N1CC(F)(CO)C1` [Example 148, [6-(Cyclopropylmethoxy)-5-(3,3-difluoroazetidin-1-yl)-2-pyridyl]-[3-fluoro-3-(hydroxymethyl)azetidin-1-yl]methanone], the negative-log EC50 (pEC50) on human CB2 receptors was 6.35; at human CB1 receptors, < 5.00.
In the case of `CC1(F)CN(C(=O)c2ccc(N3CC(F)(F)C3)c(OCC3CC3)n2)C1` [Example 149, [6-(Cyclopropylmethoxy)-5-(3,3-difluoroazetidin-1-yl)-2-pyridyl]-(3-fluoro-3-methyl-azetidin-1-yl)methanone], the negative-log EC50 (pEC50) at human CB2 receptors was 7.10; on human CB1 receptors, < 5.00.
In the same order, the values of `O=C(c1ccc(N2CC(F)(F)C2)c(OCC2CC2)n1)N1CC(F)(C2CC2)C1` [Example 150, (3-Cyclopropyl-3-fluoroazetidin-1-yl)-[6-(cyclopropylmethoxy)-5-(3,3-difluoroazetidin-1-yl)pyridin-2-yl]methanone] are 8.10 and < 5.00.
`NC(=O)[C@@H]1N(C(=O)c2ccc(N3CC(F)(F)C3)c(OCC3CC3)n2)CCC12CC2` [Example 151, (−)-5-[6-(Cyclopropylmethoxy)-5-(3,3-difluoroazetidin-1-yl)pyridine-2-carbonyl]-5-azaspiro[2.4]heptane-4-carboxamide]: the results for the pEC50 at human CB2 receptors and on human CB1 receptors were 6.09 and < 5.00, respectively.
On the same counts, the results for `NC(=O)[C@H]1N(C(=O)c2ccc(N3CC(F)(F)C3)c(OCC3CC3)n2)CCC12CC2` [Example 152, (+)-5-[6-(Cyclopropylmethoxy)-5-(3,3-difluoroazetidin-1-yl)pyridine-2-carbonyl]-5-azaspiro[2.4]heptane-4-carboxamide] are 6.47 and < 5.00.

The term pEC50 denotes −log10 of the EC50, conventionally taken in molar units. High values mean a low EC50, low ones a high EC50.

These data come from patent publication US9303012B2, “Pyridine-2-amides useful as CB2 agonists” (Hoffmann-La Roche Inc., priority 2012, dated 2016).
